The record followed here is doi:10.1101/2023.02.27.530254, “Large library docking for cannabinoid-1 receptor agonists with reduced side effects” (bioRxiv, 2024).

Structures are written as SMILES. Read-outs that look alike come from different tables or passages of the source.

In test [1] the target is hCB1 (Homo sapiens, UniProt P21554). Briefly: bioSens-All ebBRET effector biosensor signaling profiling, HEK293. The format is cell-based. Also on record: host or cells: HEK293 (HEK293SL clone), transient. The settings on record: for RE, relative efficacy: versus CP-55,940.
hCB1, sequence (P21554 whole entry): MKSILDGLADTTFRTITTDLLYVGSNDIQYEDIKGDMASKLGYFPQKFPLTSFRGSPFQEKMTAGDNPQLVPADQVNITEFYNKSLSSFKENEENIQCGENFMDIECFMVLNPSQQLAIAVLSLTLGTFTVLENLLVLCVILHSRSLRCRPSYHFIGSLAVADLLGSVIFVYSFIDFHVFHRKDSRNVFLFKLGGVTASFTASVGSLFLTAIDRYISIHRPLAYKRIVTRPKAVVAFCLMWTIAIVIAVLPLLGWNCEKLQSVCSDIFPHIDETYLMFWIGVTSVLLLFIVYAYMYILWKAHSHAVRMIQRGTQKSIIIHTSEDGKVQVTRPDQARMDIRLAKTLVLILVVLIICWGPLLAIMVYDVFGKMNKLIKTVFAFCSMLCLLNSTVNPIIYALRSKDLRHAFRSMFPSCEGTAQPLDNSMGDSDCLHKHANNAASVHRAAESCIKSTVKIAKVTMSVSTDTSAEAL
For test [2], the target named is T1, hCB2 (Homo sapiens, UniProt P34972). Nature of the test: Tango β-arrestin-2 recruitment assay, HTLA cells. Further details: expressed in transfected cells; host or cells: HTLA (transient). The settings on record: for Emax: HTLA, read-out: hCB2 Tango ß-arrestin recruitment Emax [95% CI]. Type of test: cell-based. The procedure: The Tango β-arrestin-2 recruitment assays were performed as described. In brief, HTLA cells were transiently transfected with human CB1R or CB2R Tango DNA construct overnight in DMEM supplemented with 10 % FBS, 100 μg ml−1 streptomycin and 100 U ml−1 penicillin. The transfected cells were then plated into poly-L-lysine-coated 384-well white clear-bottom cell culture plates in DMEM containing 1% dialysed FBS at a density of 10,000–15,000 cells per well. After incubation for 6 h, the plates were added with drug solutions prepared in DMEM containing 1% dialysed FBS for overnight incubation. On the day of assay, medium and drug solutions were removed and 20 μl per well of BrightGlo reagent (Promega) was added. The plates were further incubated for 20 min at room temperature and counted using the Wallac TriLux Microbeta counter (PerkinElmer). The results were analysed using GraphPad Prism 9.1. Each experiment was performed in triplicate and functional […] values were determined from the mean of three independent experiments.
T1 sequence (P34972 whole entry): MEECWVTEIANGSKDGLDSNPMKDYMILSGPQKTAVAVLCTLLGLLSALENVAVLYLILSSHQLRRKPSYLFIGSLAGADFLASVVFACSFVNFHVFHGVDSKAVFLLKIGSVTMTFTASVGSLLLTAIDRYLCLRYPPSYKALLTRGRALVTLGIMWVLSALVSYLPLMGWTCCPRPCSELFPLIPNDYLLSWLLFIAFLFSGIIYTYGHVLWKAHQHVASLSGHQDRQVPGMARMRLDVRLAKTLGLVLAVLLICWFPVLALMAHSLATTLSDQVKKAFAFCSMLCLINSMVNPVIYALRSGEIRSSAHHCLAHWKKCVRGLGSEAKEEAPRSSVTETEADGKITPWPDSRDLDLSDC

For test [3], the target named is T1, hCB2. Nature of the test: TRUPATH BRET2 GoA dissociation assay, HEK293T. Further details: expressed in transfected cells; host or cells: HEK293T (transient). The settings on record: HEK-293T, read-out: hCB2 BRET2 + GoA Emax [95% CI]. The format is cell-based. The method, then:
[…]. GoA dissociation BRET2 assays were performed as previously described with minor modifications. In brief, HEK293T cells were co-transfected overnight with human CB2 receptor, GαoA-Rluc, Gβ3, and Gγ9-GFP2 constructs. After 18–24 hours, the transfected cells were seeded into poly-L-lysine-coated 384-well white clear-bottom cell culture plates at a density of 15,000–20,000 cells and incubated with DMEM containing 1% dialyzed FBS, 100 U mL−1 of penicillin and 100 μg ml−1 of streptomycin for another 24 hours. The next day, the medium was aspirated and washed once with 20 μL of assay buffer (1× HBSS, 20 mM HEPES, 0.1% BSA, pH 7.4). Then, 20 μL of drug buffer containing coelenterazine 400a (Nanolight Technology) at 5 μM final concentration was added to each well and incubated for 5 minutes, followed by the addition of 10 μL of 3X designated drug buffer for 5 minutes. Then, 10 μL of 4X final concentrations of ligands were added for 5 minutes. […] BRET ratio was computed as the ratio of the GFP2 emission to RLuc8 emission. […] Each experiment was performed in triplicate and functional IC50 values were determined from the mean of four independent experiments.

Test [4] has as its system C56BL/6 mice. Briefly: Acetone test of cold allodynia after SNI. The settings on record: for effect on SNI-induced cold allodynia (number of paw withdrawals): acetone test. Type of test: in vivo, mouse. The procedure: Under isoflurane anesthesia, two of the three branches of the sciatic nerve were ligated and transected distally, leaving the sural nerve intact. Behavior was tested 7 to 14 days after injury.
Mice were placed on a wire mesh and thirty min after an i.p. injection of the compounds we applied a drop (50 μL) of acetone on the ventral aspect of the hindpaw, 5 times every 30 sec. We recorded the number of nocifensive behaviors (paw lifts/licks/shakes/bites) over the 5 applications.

In test [5] the test system is C56BL/6 mice. Nature of the test: Acute thermal pain tests (tail flick, hot plate, Hargreaves). Type of test: in vivo, mouse. The note with it: for tail flick latency of co-injection with morphine (3.0 mg/kg, i.p.) versus morphine alone: 0.05 and 0.1 mg/kg; for analgesic effect under CB1R knockout or AM251 (5.0 mg/kg) pre-treatment: tail flick assay; for lowest dose with significant analgesia (latencies above baseline): tail flick, hot plate and Hargreaves tests, i.p. (Thermal pain tests record how soon the animal reacts.)

The mark [6] stands for this setting: HEK293, read-out: hCB1 Barr2 + GRK2 Emax [95% CI].
[7] abbreviates: HEK293, read-out: hCB1 G13 Emax [95% CI].
The mark [8] stands for this setting: HEK293, read-out: hCB1 G15 Emax [95% CI].
Where [9] appears, read: HEK293, read-out: hCB1 Gi1 Emax [95% CI].
Where [10] appears, read: HEK293, read-out: hCB1 Gi2 Emax [95% CI].
Where [11] appears, read: HEK293, read-out: hCB1 GoB Emax [95% CI].
Setting [12] is: HEK293, read-out: hCB1 Gz Emax [95% CI].
[13] abbreviates: hCB1 Barr2 + GRK2 pEC50 [95% CI], ßarrestin-2 PM recruitment sensor with GRK2.
Setting [14] is: hCB1 G13 EC50 [95% CI], G13 sensor.
Where [15] appears, read: hCB1 G15 pEC50 [95% CI], G15 sensor.
[16] abbreviates: hCB1 Gi1 pEC50 [95% CI], Gi1 sensor.
Where [17] appears, read: hCB1 Gi2 EC50 [95% CI], Gi2 sensor.
The mark [18] stands for this setting: hCB1 GoB pEC50 [95% CI], GoB sensor.
Where [19] appears, read: hCB1 Gz pEC50 [95% CI], Gz sensor.
The mark [20] stands for this setting: hCB1 Gi1 EC50 [95% CI], Gi1 sensor.
[21] abbreviates: hCB1 GoB EC50 [95% CI], GoB sensor.

In the case of `CCCCCCC(C)(C)c1ccc([C@@H]2C[C@H](O)CC[C@H]2CCCO)c(O)c1` [CP-55,940, reference compound], the Emax (in general, the size of the effect at its maximum, as opposed to the concentration needed) came out at 89% in test [1] (HEK293, read-out: hCB1 Barr2 + GRK2 Emax [95% CI], ßarrestin-2 sensor with GRK2, normalized to CP-55,940); 100% in test [1] (HEK293, read-out: hCB1 G13 Emax [95% CI], G13 sensor, normalized to CP-55,940); 100% in test [1] (HEK293, read-out: hCB1 G15 Emax [95% CI], G15 sensor, normalized to CP-55,940); 100% in test [1] (HEK293, read-out: hCB1 Gi1 Emax [95% CI], Gi1 sensor, normalized to CP-55,940); 100% in test [1] (HEK293, read-out: hCB1 Gi2 Emax [95% CI], Gi2 sensor, normalized to CP-55,940); 100% in test [1] (HEK293, read-out: hCB1 GoB Emax [95% CI], GoB sensor, normalized to CP-55,940). In addition, the maximal effect (Emax) in test [2] amounted to 100%; in test [3], 99%. Besides, the “effect on SNI-induced cold allodynia (number of paw withdrawals)” value (“effect on SNI-induced cold allodynia” for short) in test [4] is reported as “strongly reduced”. Moreover, the “dose with increased latencies” value in test [5] (Hargreaves test) is reported as 0.2 mg/kg; in test [5] (tail flick test), 0.5 mg/kg.

Consider `COC(=O)[C@@](C)(NC(=O)c1cc(C)n(-c2cccc(C(F)(F)F)c2)n1)c1cccs1` [‘1350], for which the Emax in test [1] (setting [6]) was found to be 63%; in test [1] (setting [7]), 56%; in test [1] (setting [8]), 99%; in test [1] (setting [9]), 92%; in test [1] (setting [10]), 95%; in test [1] (setting [11]), 98%. Besides, the Emax in test [1] (setting [12]) came to 94%. The EC50 (usually the concentration needed to bring the measured effect to its halfway point) is 2.19 nM in test [1] (setting [13]); 0.83 nM in test [1] (setting [14]); 0.219 nM in test [1] (setting [15]); 0.234 nM in test [1] (setting [16]); 0.28 nM in test [1] (setting [17]); 0.288 nM in test [1] (hCB1 Gi2 pEC50 [95% CI], Gi2 sensor). The EC50 was 0.288 nM in test [1] (setting [18]) and 0.347 nM in test [1] (setting [19]). In addition, the “RE, relative efficacy” value in test [1] (hCB1 G13) was 1.64; in test [1] (hCB1 G15), 1.14; in test [1] (hCB1 Gi1), 1.98; in test [1] (hCB1 Gi2), 1.89; in test [1] (hCB1 GoB), 2.24; in test [1] (hCB1 Gz) it was 0.77. Further, the “RE, relative efficacy” value in test [1] (hCB1 ßarr2 + GRK2) turned out to be 1.16. Moreover, in test [4], the “effect on SNI-induced cold allodynia” value is listed as “strongly reduced”. The “dose with significant anti-allodynia” value in test [4] (acetone test for cold pain) was 0.05 mg/kg. In addition, the “tail flick latency of co-injection with morphine (3.0 mg/kg, i.p.) versus morphine alone” value in test [5] is listed as “significantly longer tail flick latencies”. Besides, the “analgesic effect under CB1R knockout or AM251 (5.0 mg/kg) pre-treatment” value in test [5] is “completely blocked”. Further, the “lowest dose with significant analgesia (latencies above baseline)” value in test [5] was 0.1 mg/kg.

Consider `COC(=O)C(C)(NC(=O)c1cc(C)n(-c2cccc(C(F)(F)F)c2)n1)c1cccs1` (stereo not shown) [‘4042], for which the Emax in test [1] (setting [6]) came out at 72%; in test [1] (setting [7]) it was 64%; in test [1] (setting [8]) it was 105%; in test [1] (setting [9]) it was 102%; in test [1] (setting [10]), 101%; in test [1] (setting [11]), 103%. The Emax in test [1] (setting [12]) was found to be 97%; in test [2], 28%; in test [3], 29%. Besides, the EC50 is 3.63 nM in test [1] (setting [13]); 2.1 nM in test [1] (setting [14]); 2.04 nM in test [1] (hCB1 G13 pEC50 [95% CI], G13 sensor); 0.372 nM in test [1] (setting [15]); 0.48 nM in test [1] (setting [20]); 0.56 nM in test [1] (setting [17]). For the same compound, the EC50 was 0.64 nM in test [1] (setting [21]), 0.631 nM in test [1] (setting [18]), 0.427 nM in test [1] (setting [19]) and 33.9 nM in test [2]. The “RE, relative efficacy” value in test [1] (hCB1 G13) is recorded as 0.91; in test [1] (hCB1 G15), 0.74; in test [1] (hCB1 Gi1), 0.97; in test [1] (hCB1 Gi2), 1.01; in test [1] (hCB1 GoB), 1.04; in test [1] (hCB1 Gz), 0.62. The “RE, relative efficacy” value in test [1] (hCB1 ßarr2 + GRK2) is 0.81. The “effect on SNI-induced cold allodynia” value in test [4] is on record as “strongly reduced”. Further, the “tail flick latency of co-injection with morphine (3.0 mg/kg, i.p.) versus morphine alone” value in test [5] is given as “significantly longer tail flick latencies”. For the same compound, the “analgesic effect under CB1R knockout or AM251 (5.0 mg/kg) pre-treatment” value in test [5] is reported as “completely blocked”. Further, the “decrease of analgesic effects by CB2R knockout or SR-144528 (1.0 mg/kg)” value in test [5] (tail flick or Hargreaves assays) was “neither”. Besides, the “lowest dose with significant analgesia (latencies above baseline)” value in test [5] worked out at 0.1 mg/kg.

As for `COC(=O)C(NC(=O)c1cc(C)n(-c2cccc(C(F)(F)F)c2)n1)c1cccs1` (stereo not shown) [‘60154], the maximum response (Emax) in test [1] (setting [9]) was 92%; in test [1] (setting [11]), 100%; in test [1] (setting [12]) it was 121%; in test [2] it was 21%; in test [3], 31%. Also, the EC50 is 2.5 nM in test [1] (setting [20]); 25.1 nM in test [1] (setting [16]); 18.4 nM in test [1] (setting [21]); 17.5 nM in test [1] (hCB1 Gz EC50 [95% CI], Gz sensor); 3340 nM in test [2].
